How the values were obtained:
Assay type in all cases: cell-based
[1] = system: mCherry-GAL9 expressing HEK293 cells; test: GAL9 recruitment assay, HEK293; conditions: calculated mean from >3 independent exp.
Procedure: (§1) Experiments assessing GAL9 localization as an indicator for endosomal remodeling were performed as previously described[15] using 8× stablemCherry-GAL9 expressing cell lines, SHSY5Y, U2OS, 16HBE, NCI-H358, HuH7, HepG2, HEK293, and HeLa. For mCherry-GAL9 recruitment, 3,000 or 6,500 cells/well (depending upon cell line) were seeded into 384-well CellCarrier Ultra plates 24 h prior to treatment (PerkinElmer, catalog no. 6007558). An Echo 655T acoustic dispenser (Labcyte) was used for EEE dose-response preparation by transferring to the cell plate. At assay endpoints, cells were PBS washed, 4% paraformaldehyde fixed at room temperature […] (VWR, catalog no. 9713.1000), and nuclei stained with PBS +1 μg/mL Hoechst 33342 (Thermo Fisher Scientific, catalog no. H21492).
(§2) Imaging was performed using a spinning-disk confocal microscope (Yokogawa: CV8000) with a ×20w objective (numerical aperture 1.0). Cells and mCherry-GAL9 structure identification and quantification were done using Columbus image-analysis software (PerkinElmer version 2.9.0). Data processing was done using Spotfire (Tibco version 11.4) and Prism (GraphPad version 9.1.0). Image panels were assembled using the FigureJ plugin for FIJI.[43] All mCherry-GAL9 experiments were performed three times (N = 3) with duplicated wells per treatment (n = 2).

[2] = system: HeLa_Luc705 cells (pLuc/705 splice-switching reporter); test: Functional 705-SSO delivery, luciferase splice-switching assay; conditions: HeLa-Luc705 + 2 µM SSO; EEE 2.5 - 3 µM; mean from >3 independent experiments
Source text: Therefore, next, we functionally screened the SSO delivery in the HeLa_Luc705 reporter cell line. HeLa_Luc705 carries a pLuc/705 splice-switching reporter luciferase gene interrupted by a mutated β-globin intron, which creates a preferentially used cryptic 5′ splice site leading to aberrant splicing. Functional SSO delivery masks the cryptic site, redirecting the splicing machinery to the right splicing site, allowing the measurement of luciferase expression (Figure S1).[25]^,[26]^,[27]^,[28] We used SSO transfection with LF2000 as transfection control and the previously published endosomal escape enhancer CMP05 (here, EEE2) as positive control.[15]
For the assessment of functional SSO therapeutics, a HeLa_Luc705 cell line was grown in DMEM media supplemented with 10% fetal bovine serum (FBS). For most treatments, 10,000 cells/well were seeded in a 96-well plate, 24 h pre-incubated with 1- to 2-μM oligonucleotide, and then treated at the described EEE concentration. At 24 h post-treatment, cells were PBS rinsed and collected for further analysis (treatments and incubation times changed accordingly to the experiment design). Luciferase readout was performed as previously described,[15] using a GloMax 96-well plate microplate luminometer (Promega) immediately after adding 30 μL auto-injected luciferin substrate (Promega Firefly Luciferase Assay System; Thermo Scientific, catalog no. 16174) in a white-walled 96-well plate containing 30 μL 0.1% Triton X-100 (Sigma-Aldrich) cell lysed. Photon exposure time and delay were set to 10 and 2 s after injection. LF2000 was used as the transfection reagent control (Thermo Scientific, catalog no. 11668019). For EEE experiments using 1 or 2 μM SSOs, the control was prepared using lipofection with 100–200 nM SSO; this is to avoid complex induced cell toxicity.
705-SSO was purchased from and synthesized by Integrated DNA Technologies. The 705-SSO sequence was previously published, containing 2′-O-methylated bases and only phosphorothioate-saturated backbone linkages were included.[15] The 705-SSO was high-performance liquid chromatography purified, shipped, and stored in IDTE buffer (10 mM Tris, 0.1 mM EDTA).

[3] = system: mCherry-GAL9 expressing U2OS cells; test: GAL9 recruitment assay, U2OS; conditions: calculated mean from >3 independent exp.
Procedure: as §1, §2

[4] = system: mCherry-GAL9 expressing NCI-H358 cells; test: GAL9 recruitment assay, NCI-H358; conditions: calculated mean from >3 independent exp.
Procedure: as §1, §2

[5] = system: mCherry-GAL9 expressing HeLa cells; test: GAL9 recruitment assay, HeLa; conditions: calculated mean from >3 independent exp.
Procedure: as §1, §2

[6] = system: mCherry-GAL9 expressing 16HBE cells; test: GAL9 recruitment assay, 16HBE; conditions: calculated mean from >3 independent exp.
Procedure: as §1, §2

[7] = system: mCherry-GAL9 expressing HepG2 cells; test: GAL9 recruitment assay, HepG2; conditions: calculated mean from >3 independent exp.
Procedure: as §1, §2

[8] = system: mCherry-GAL9 expressing HuH7 cells; test: GAL9 recruitment assay, HuH7; conditions: calculated mean from >3 independent exp.
Procedure: as §1, §2

[9] = system: mCherry-GAL9 expressing SHSY5Y cells; test: GAL9 recruitment assay, SHSY5Y; conditions: calculated mean from >3 independent exp.
Procedure: as §1, §2

For `COc1nn(C2CCN(C)CC2)cc1Nc1ncc(Cl)c(-n2ccc3c(C#N)cccc32)n1` [EEE17], the “Gal9 response compared to reference” value ([1]; EEE 0.31 µM) was 0.023, the “Gal9 response compared to reference” value ([1]; EEE 0.62 µM) was 0.022 and the “Gal9 response compared to reference” value ([1]; EEE 1.25 µM) was 0.019. The “Gal9 response compared to reference” value ([1]; EEE 2.5 µM) was 0.019, the “Gal9 response compared to reference” value ([1]; EEE 5 µM) was 0.096 and the “Gal9 response compared to reference” value ([1]; EEE 10 µM) was 0.437. The “Luciferase expression compared to reference” value [2] was 0.752, the “Gal9 response compared to reference” value ([3]; EEE 0.31 µM) was 0.012 and the “Gal9 response compared to reference” value ([3]; EEE 0.62 µM) was 0.011. For the same compound, the “Gal9 response compared to reference” value ([3]; EEE 1.25 µM) was 0.013, the “Gal9 response compared to reference” value ([3]; EEE 2.5 µM) was 0.015 and the “Gal9 response compared to reference” value ([3]; EEE 5 µM) was 0.021. For the same compound, the “Gal9 response compared to reference” value ([3]; EEE 10 µM) was 0.155, the “Gal9 response compared to reference” value ([4]; EEE 0.31 µM) was 0.016 and the “Gal9 response compared to reference” value ([4]; EEE 0.62 µM) was 0.019. The “Gal9 response compared to reference” value ([4]; EEE 1.25 µM) was 0.014, the “Gal9 response compared to reference” value ([4]; EEE 2.5 µM) was 0.018 and the “Gal9 response compared to reference” value ([4]; EEE 5 µM) was 0.028. For the same compound, the “Gal9 response compared to reference” value ([4]; EEE 10 µM) was 0.303, the “Gal9 response compared to reference” value ([5]; EEE 0.31 µM) was 0.005 and the “Gal9 response compared to reference” value ([5]; EEE 0.62 µM) was 0.004. For the same compound, the “Gal9 response compared to reference” value ([5]; EEE 1.25 µM) was 0.004, the “Gal9 response compared to reference” value ([5]; EEE 2.5 µM) was 0.004 and the “Gal9 response compared to reference” value ([5]; EEE 5 µM) was 0.012. The “Gal9 response compared to reference” value ([5]; EEE 10 µM) was 0.201, the “Gal9 response compared to reference” value ([6]; EEE 0.31 µM) was 0.008 and the “Gal9 response compared to reference” value ([6]; EEE 0.62 µM) was 0.010. The “Gal9 response compared to reference” value ([6]; EEE 1.25 µM) was 0.008, the “Gal9 response compared to reference” value ([6]; EEE 2.5 µM) was 0.010 and the “Gal9 response compared to reference” value ([6]; EEE 5 µM) was 0.048. The “Gal9 response compared to reference” value ([6]; EEE 10 µM) was 0.488, the “Gal9 response compared to reference” value ([7]; EEE 0.31 µM) was 0.009 and the “Gal9 response compared to reference” value ([7]; EEE 0.62 µM) was 0.008. For the same compound, the “Gal9 response compared to reference” value ([7]; EEE 1.25 µM) was 0.008, the “Gal9 response compared to reference” value ([7]; EEE 2.5 µM) was 0.011 and the “Gal9 response compared to reference” value ([7]; EEE 5 µM) was 0.010. The “Gal9 response compared to reference” value ([7]; EEE 10 µM) was 0.030, the “Gal9 response compared to reference” value ([8]; EEE 0.31 µM) was 0.007 and the “Gal9 response compared to reference” value ([8]; EEE 0.62 µM) was 0.007. The “Gal9 response compared to reference” value ([8]; EEE 1.25 µM) was 0.010, the “Gal9 response compared to reference” value ([8]; EEE 2.5 µM) was 0.017 and the “Gal9 response compared to reference” value ([8]; EEE 5 µM) was 0.021. The “Gal9 response compared to reference” value ([8]; EEE 10 µM) was 0.132, the “Gal9 response compared to reference” value ([9]; EEE 0.31 µM) was 0.014 and the “Gal9 response compared to reference” value ([9]; EEE 0.62 µM) was 0.013. For the same compound, the “Gal9 response compared to reference” value ([9]; EEE 1.25 µM) was 0.012, the “Gal9 response compared to reference” value ([9]; EEE 2.5 µM) was 0.014 and the “Gal9 response compared to reference” value ([9]; EEE 5 µM) was 0.176. For the same compound, the “Gal9 response compared to reference” value ([9]; EEE 10 µM) was 0.610.

— publication PMC11999280, “Design and screening of novel endosomal escape compounds that enhance functional delivery of oligonucleotides in vitro” (Molecular Therapy. Nucleic Acids, 2025)
